Experimental data taken from PubChem BioAssay AID463204 (Broad Institute, 2010).
Calls of active or inactive are those of the source.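 The calls were made as follows: active = AC50 no more than ten times the top concentration tested, that is within one log above it; inconclusive = flat curve fit with activity between 30% and 70%, or invalid poor fit; inactive = AC50 beyond ten times the top tested dose.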

tested on: S. cerevisiae Mot1-301 ts growth rescue, BacTiter-Glo ATP luminescence; experiment: growth rescue of Mot1-301 ts yeast, confirmation, SUMOylation pathway inhibitor project, whole organism, S. cerevisiae, Mot1-301 ts mutant, luminescence, dose retest (AID 463204);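 also: growth at restrictive 38.5 degrees C of Mot1-301 OY566 strain; actives raise luminescence by restoring growth of the ts mutant at high temperature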

Compound | AC50
Cc1ccccc1-c1nc(CN2CCCC(C(=O)NCc3cccnc3)C2)c(C)o1 (stereo unspecified) | > 42 µM (inactive)
CCCCn1c(/C=N/Nc2nc3ccccc3[nH]2)nc2ccccc21 | 3.98 µM
O=C1NC(Cc2c[nH]c3ccccc23)C(=O)N1Cc1ccc(CN2C(=O)NC(Cc3c[nH]c4ccccc34)C2=O)cc1 (stereo unspecified) | > 42 µM (inactive)
COC(=O)Oc1ccc(/C=N/NS(=O)(=O)c2ccccc2)cc1OC | > 42 µM (inactive)
CC(C)(C)C(=O)C(Cl)C(=O)Nc1ccccc1 (stereo unspecified) | 3.35 µM
COc1cc2c(=O)n(CCC(=O)NCC3CCCO3)c(=O)n(CC(=O)Nc3ccccc3C)c2cc1OC (stereo unspecified) | > 42 µM (inactive)
CCOC(=O)c1ccccc1NC(=O)C1CC(=O)N(C2CCCCC2)C1 (stereo unspecified) | > 42 µM (inactive)
COCCn1c(SCC(=O)Nc2nc3ccccc3s2)nnc1-c1ccoc1C | > 42 µM (inactive)
CN(C)S(=O)(=O)c1ccc(C(=O)/C=C/c2cccnc2)cc1 | > 42 µM (inactive)
O=C(O)CCC(=O)Nc1cccc(C(=O)Nc2ccc(Br)cc2)c1 | > 42 µM (inactive)
Cc1cc(C)cc(-n2ncc3c2CCCC3NC(=O)c2cc(C)[nH]n2)c1 (stereo unspecified) | > 42 µM (inactive)
CCOC(=O)C1C(c2ccc(C)o2)NC(=O)NC1(O)C(F)(F)F (stereo unspecified) | > 42 µM (inactive)
S=c1[nH]nc(-c2ccco2)n1-c1ccc(Br)cc1 | > 42 µM (inactive)
Cc1sc2ncnc(N3CCC(C(=O)NNC(=O)COc4ccccc4F)CC3)c2c1C | > 42 µM (inactive)
CCC(=O)Nc1ccc(S(=O)(=O)NCc2ccco2)cc1 | > 42 µM (inactive)
CCOC(=O)C1CCN(C(=O)COc2ccc(S(=O)(=O)N3CCOCC3)cc2C)CC1 | > 42 µM (inactive)
CCC(C)NCCCCOc1cc(C)cc(C(C)C)c1 (stereo unspecified) | > 42 µM (inactive)
COC(=O)c1cc2c(s1)-c1ccc(OC)cc1CC2 | > 42 µM (inactive)
Cc1[nH]oc(=O)c1N=Nc1c(Cl)cccc1Cl | 6.02 µM
CCC(C)(C)NC(=O)C(c1ccc(C)cc1)N(CC1CCCO1)C(=O)CNC(=O)c1cccs1 (stereo unspecified) | > 42 µM (inactive)
O=C(NC(=S)Nc1ccccc1N1CCCC1)c1ccc([N+](=O)[O-])cc1 | > 42 µM (inactive)
Cc1ccc(C2C(C(=O)c3cccs3)=C(O)C(=O)N2c2ccc(S(N)(=O)=O)cc2)cc1 (stereo unspecified) | > 42 µM (inactive)
c1ccc(CNc2ccc3ccccc3n2)nc1 | > 42 µM (inactive)
Cc1[nH]c2ccccc2c1/C=N/NC(=O)c1cccc(Br)c1 | > 42 µM (inactive)

Compound | AC50
Nc1cc(C(=O)OCC(=O)N2CCOCC2)ccc1Cl | > 42 µM (inactive)
COc1ccccc1NC(=O)CSc1nc(O)c(Cc2ccccc2)c(=O)[nH]1 | > 42 µM (inactive)
CC(=O)N1CCc2cc(S(=O)(=O)NCCC3=CCCCC3)ccc21 | > 42 µM (inactive)
COc1cc2c(cc1NC(=O)c1cccnc1)oc1ccccc12 | > 42 µM (inactive)
CC(C)C1OC2(C)OC(=N)C1(C#N)C(C#N)(C#N)C2c1ccccc1 (stereo unspecified) | > 42 µM (inactive)
COc1ccc2c(c1)c(CC(=O)OCC(N)=O)c(C)n2C(=O)c1ccc(Cl)cc1 | > 42 µM (inactive)
COc1ccc(CN2C(=O)c3c(c(C)n(C)c3C)C2C(=O)NC2CCC(C)CC2)cc1 (stereo unspecified) | > 21 µM (inactive)
CS(=O)(=O)c1ccc(Cl)c(NC(=O)c2ccc3ccccc3c2)c1 | > 42 µM (inactive)
CCOC(=O)c1nc(Nc2ccccc2CC)c2ccccc2n1 | > 42 µM (inactive)
O=S(=O)(Nn1c(O)c(C=C2N=c3ccccc3=N2)sc1=S)c1ccccc1 | > 42 µM (inactive)
COc1ccc(NC(=O)Cn2c(=O)cnc3ccccc32)cc1S(=O)(=O)N1CCCCC1 | > 42 µM (inactive)
CCOc1ccc(C(=O)NNC2CC(=O)N(CCc3ccccc3)C2=O)cc1OC (stereo unspecified) | > 42 µM (inactive)
Cc1ccc(F)cc1NS(=O)(=O)c1ccc(Cl)s1 | 22.2 µM
N#Cc1ccc(C23CC4(C2)[C@H](CN(Cc2ccc(C(F)(F)F)cc2)[C@@H]4c2ccccc2)C3c2ccc(C(F)(F)F)cc2)cc1 (stereo partly specified) | > 42 µM (inactive)
O=C(NCCNc1ccc(Cl)cc1[N+](=O)[O-])c1ccccc1F | > 42 µM (inactive)
O=S(=O)(NCc1cccc(C(F)(F)F)c1)NCc1ccccc1F | > 42 µM (inactive)
O=C(NCc1ccccc1Cl)C(=O)NCC1CCCN1S(=O)(=O)c1cccs1 (stereo unspecified) | > 42 µM (inactive)
CCCCCNC(=O)c1ccc2c(=O)n(CC3CCCO3)c(=O)[nH]c2c1 (stereo unspecified) | > 42 µM (inactive)
O=S1(=O)C=C(Sc2nnc(-c3ccccc3)o2)c2ccccc21 | 1.47 µM
Clc1ccc(CNCc2cccs2)cc1Cl | > 42 µM (inactive)
Cc1cc(/C=C2\C(=O)NC(=O)N(c3ccccc3F)C2=O)c(C)n1-c1cc(C(=O)O)cc(C(=O)O)c1 | > 42 µM (inactive)
COc1ccc(CCC(=O)NNC(=S)Nc2cccc(C(C)=O)c2)cc1 | > 42 µM (inactive)
CCOc1ccc(OCC)c(NC(=O)C2COc3ccccc3O2)c1 (stereo unspecified) | > 42 µM (inactive)
O=C1c2cccc3c(N4CCCCC4)ccc(c23)C(=O)N1CCO | > 42 µM (inactive)

Compound | AC50
CC(=O)Nc1cc2nn(-c3ccccc3)nc2cc1Cl | > 42 µM (inactive)
Cc1ccc(S(=O)(=O)N2CCN(C(=O)CSc3nc(N)cc(=O)[nH]3)CC2)c(C)c1 | > 42 µM (inactive)
Cc1ccc(S(=O)(=O)NCC(C)n2cncn2)cc1 (stereo unspecified) | > 42 µM (inactive)
COc1ccc2c(c1)OC[C@H]1[C@H]2N2C(=O)c3cc(OC)c(OC)cc3NC(=O)[C@@]2(C)[C@H]1c1ccccc1 | 5.49 µM
COc1c(C)cc(S(=O)(=O)NC2CC(C)(C)NC(C)(C)C2)c(C)c1C | > 42 µM (inactive)
COc1ccc(NC2CCCN(C(=O)c3csc(C)n3)C2)cc1 (stereo unspecified) | > 42 µM (inactive)
CCC(C)(C(=O)NC1CCCC1)N(C(=O)c1ccccn1)c1ccc(C)cc1 (stereo unspecified) | > 42 µM (inactive)
COc1cc(CNCc2ccc3c(c2)OCO3)c([N+](=O)[O-])cc1OC | > 42 µM (inactive)
COc1cc(C(=O)Nc2ccc3c(c2)OCCO3)ccc1-n1cnnn1 | > 42 µM (inactive)
CCOC(=O)C1(CCOc2ccccc2)CCN(Cc2cccc(OC)c2O)CC1 | > 42 µM (inactive)
Cc1ccc(SCCC(=O)Nc2ccc(OCc3ccccc3)cc2)cc1 | > 42 µM (inactive)
Cc1ccc(Nc2cc(C)nc3c(C)ccc([N+](=O)[O-])c23)cc1 | 13.8 µM
c1ccc(C(c2ccccc2)N2CCN(C(c3ccccn3)c3nnnn3C3CCCC3)CC2)cc1 (stereo unspecified) | > 42 µM (inactive)
Cc1cc(OCC(=O)NCC2CCC(C(=O)O)CC2)c2c(C)c(C)c(=O)oc2c1 (stereo unspecified) | > 42 µM (inactive)
O=C(COc1ccccc1)NCCS(=O)(=O)N1CCN(c2ccccc2)CC1 | > 42 µM (inactive)
COc1ccc2c(c1)[C@H]1[C@H](CO2)[C@H](c2ccccc2)[C@]2(C)C(=O)Nc3ccc(C)cc3C(=O)N12 | > 42 µM (inactive)
CN1CCN(CC(=O)N2c3ccccc3C(=O)Nc3cccnc32)CC1 | > 42 µM (inactive)
COc1ccccc1-n1nnnc1SCC(=O)Nc1ccc(C)c(N)c1 | > 42 µM (inactive)
COc1ccccc1CCNC(=O)/C(=C/c1cccnc1)NC(=O)c1ccccc1 | > 42 µM (inactive)
Cc1cccc(CS(=O)(=O)Cc2ccc(C(=O)NCC3CCCO3)o2)c1 (stereo unspecified) | > 42 µM (inactive)
COC(=O)C12CCC3(SCCS3)C(C(=O)OC)(CCC13SCCS3)C2 | 7.24 µM
COc1ccc2c(c1)[C@H]1[C@H](CO2)[C@H](c2ccccc2)[C@]2(C)C(=O)Nc3ccc(Br)cc3C(=O)N12 | 1.17 µM
CCN(CC)C(=O)CSc1nnc(SCc2ccc(Cl)cc2)s1 | > 42 µM (inactive)
CCNC(=O)C1CC(=O)N(Cc2ccc3c(c2)OCO3)C(=Nc2ccc(F)cc2)S1 (stereo unspecified) | > 42 µM (inactive)

Compound | AC50
O=C(c1cn(-c2ccccc2)nc1-c1cccs1)N1CCOCC1 | > 42 µM (inactive)
CC(C(=O)Nc1ccccc1-c1ccccc1)N1CCN(Cc2ccccc2)CC1 (stereo unspecified) | > 42 µM (inactive)
CC(=O)N(C(C)=O)C1=C(C#N)C2(CCCCC2)Cc2ccccc21 | > 42 µM (inactive)
CCOc1ccccc1C(=O)N(Cc1cccs1)C1CCS(=O)(=O)C1 (stereo unspecified) | > 42 µM (inactive)
Cc1ccccc1C(=O)NNC(=O)/C=C\C(=O)O | > 42 µM (inactive)
CC1=C(C(N)=O)C(c2ccccn2)n2nc(SCc3ccccc3Cl)nc2N1 (stereo unspecified) | > 42 µM (inactive)
O=C(CN1C(=O)NC2(CCCC2)C1=O)Nc1nc2ccccc2[nH]1 | > 42 µM (inactive)
COc1ccc2c(Cl)c(C(=O)NN3CCN(C)CC3)sc2c1 | > 42 µM (inactive)
CC(C)CN(C(=O)COC(=O)c1ccc2c(c1)OCO2)c1c(N)n(Cc2ccccc2)c(=O)[nH]c1=O | > 42 µM (inactive)
Cc1nc(-c2ccc(Cl)cc2)sc1C1(C)CC(c2c(Cl)cccc2Cl)=NO1 (stereo unspecified) | > 42 µM (inactive)
COc1cc2c(cc1OC)C(c1ccccc1[N+](=O)[O-])N(C(C)=O)CC2 (stereo unspecified) | > 42 µM (inactive)
CC1(C)CCC(=O)N2CC[C@H]3C[C@H](OC(=O)Nc4ccc(Br)cc4)C[C@@H]1[C@H]32 | > 42 µM (inactive)
Cc1cc(-c2nnc3sc(C4CCCCC4)nn23)n[nH]1 | > 42 µM (inactive)
O=C(Nc1ccc(F)cc1)c1cccnn1 | > 42 µM (inactive)
CCC(NC(=O)c1ccccc1NC(=O)c1ccco1)C(=O)NC1CCCCC1 (stereo unspecified) | > 42 µM (inactive)
O=C(N/N=C\c1cn(-c2ccccc2)nc1-c1ccccc1)c1ccc(Br)o1 | > 42 µM (inactive)
COc1ccc(S(=O)(=O)Nc2ccc(NC(C)=O)cc2)cc1OC | > 42 µM (inactive)
Cc1ccc(C(=O)c2cc([N+](=O)[O-])ccc2N2CCCCC2)cc1C | > 42 µM (inactive)
CCOc1cc(C(=S)N2CCOCC2)ccc1OC(=O)c1ccc(C)cc1 | > 42 µM (inactive)
Cc1ccc(C2=NN(CC(=O)NCc3cccs3)C(=O)CC2)cc1 | > 42 µM (inactive)
O=C(Cc1ccc(Cl)cc1)NC(=S)Nc1ccccc1N1CCOCC1 | > 42 µM (inactive)
O=C(Nc1ccccc1N1CCN(c2ccccc2)CC1)c1cccc(F)c1 | > 42 µM (inactive)
O=C(NCc1ccccc1Cl)c1ccc2c(c1)OCO2 | 30.4 µM
CC(C)(C)NC(=O)CC1C(=O)NCCN1Cc1c(F)cccc1Cl (stereo unspecified) | > 42 µM (inactive)
